According to publication PMC8956739, “A synthetic lipopeptide targeting top-priority multidrug-resistant Gram-negative pathogens” (Nature Communications, 2022):
≈ marks a conversion by molar mass, not a printed value. Where “and” joins values, the source holds several entries; their conditions need not be identical. Equal entries are not always repeated. Where two headings read alike, the source gives them in different places. Residues, ends and D or L forms follow the SMILES beside them.

Key:
[1] = Distribution, accumulation and metabolism in mouse kidneys (ME-SALDI-MS imaging, histology); format: in vivo; conditions: 10 μmol/kg SC; for kidney histology, SQS scores: 6 doses Day 1 and 3 doses Day 2; for level at time molar: female, Swiss, mouse, in vivo, 10 umol/kg, 6 doses Day 1 and 3 doses Day 2, 2 h after last dose, read-out: Concentration in the kidney cortex region
Description: At 2 h after the last dose on Day 2, mice were rapidly euthanized. The left kidney was collected, flash-frozen in liquid nitrogen, and stored at -80 C for MS imaging analysis. The right kidney was fixed in 10% formalin for histological examination (Histopathology and Organ Pathology Unit at the University of Melbourne). The level of histological damage to the kidneys was graded as previously described. […] A total of 1 μL was spotted onto electrochemically etched, porous-silicon semiconductor substrates for desorption/ionization on silicon (DIOS)[39]. […] For lipopeptide distribution in mouse kidneys, serially sectioned 8-μm frozen slices of the kidney were loaded onto DIOS substrates and coated with a thin layer of α-CHCA using a matrix sprayer (TM-Sprayer, HTX) for MSI analysis. […] Mounted tissue was scanned for imaging alignment (Epson Perfection […]) and calibrated as previously described. Resulting polymyxin maps were visualized and normalized against the total ion current (TIC) of each section using IonView software (Shimadzu). Lipopeptide accumulation in mouse kidneys was determined by simultaneous […] analysis of kidney tissue from treated animals and serial dilutions of the drug deposited on control kidney tissue. […] The signal intensities were compared to the corresponding concentration standard curve to calculate the concentration of lipopeptide present. Putative metabolites in the kidneys treated with lipopeptides were identified by […]. Control kidney sections were used to differentiate lipopeptide metabolites from endogenous metabolites and MS/MS data from lipopeptide standards were used to differentiate lipopeptide metabolites from the parent ion generated via CID processed in the acquisition software (MALDI Solutions, Shimadzu). Levels of accumulated lipopeptide metabolites were determined by normalization to the parent ion in MSI data.

P. aeruginosa ATCC 27853 [2] = test: Neutropenic mouse bloodstream infection model; format: in vivo; conditions: single IV dose 4 mg/kg; for Log10 CFU/mL blood at 4 h, Mean / Δlog10 CFU/mL blood (mean) / Log10 CFU/mL blood at 4 h, single mouse: 4 h; for Δlog10 CFU/mL blood (mean): treated minus control, mean of replicates; for Δlog10 CFU/mL blood (mean) / Log10 CFU/mL blood at 4 h, single mouse / Delta Log10 CFU/mL blood at 4 h, single mouse: 4 mg/kg; for Delta Log10 CFU/mL blood at 4 h, single mouse: treated mouse minus mean of vehicle mice
How it was run: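 Female Swiss mice made neutropenic with cyclophosphamide (150 mg/kg day −4, 100 mg/kg day −1), infected IV with 50 µL of 4 × 10^8 CFU/mL. Lipopeptide 4 mg/kg (free base) IV at 2 h post-inoculation, n = 3. Efficacy = Δlog10 CFU/mL blood versus saline at 4 h post-dose.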

[3] = Acute toxicity in mice (maximum tolerated dose, IV bolus); format: in vivo, mouse; conditions: mouse, in vivo, iv, single IV bolus dose, replicates 1-4; read-out: MTD, single replicate
Description: (§1) Lipopeptide solutions were prepared in 0.9% saline and stored at 4 °C before use. Swiss mice (female, 7-week-old, 22–28 g) were used in the study. A mouse was administered an intravenous bolus of the lipopeptide (mg/kg free base) through a lateral tail vein (≤0.1 mL). After the injection, the mouse was released back into the cage and monitored for clinical signs of toxicity from 0 to 24 h after injection as follows: every 10 min in the first 2 h, every half hour from 2 to 4 h, every hour from 4 to 12 h, and every 2 h from 12 to 24 h.

Swiss mice = test: as above; format: in vivo, mouse; conditions: replicates 1-4
Description: as §1

A. baumannii ATCC 19606 = format: cell-based, Acinetobacter baumannii
How it was run: (§2)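 Susceptibility: microdilution MIC in CaMHB.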

A. baumannii FADDI-AB030 = format: cell-based, Acinetobacter baumannii
How it was run: as §2

A. baumannii FADDI-AB034 = format: cell-based, Acinetobacter baumannii
How it was run: as §2

P. aeruginosa ATCC 27853 [4] = format: cell-based, Pseudomonas aeruginosa
How it was run: as §2

[5] = test system: P. aeruginosa FADDI-PA025; format: cell-based, Pseudomonas aeruginosa
How it was run: as §2

[6] = test system: P. aeruginosa FADDI-PA038; format: cell-based, Pseudomonas aeruginosa
How it was run: as §2

[7] = test system: K. pneumoniae FADDI-KP032; format: cell-based, Klebsiella pneumoniae
How it was run: as §2

[8] = test system: K. pneumoniae FADDI-KP065; format: cell-based, Klebsiella pneumoniae
How it was run: as §2

Swiss mice, kidney = test: Nephrotoxicity in mice (kidney histopathology); format: in vivo, mouse; conditions: for Kidney histopathology (SQS Score): 72 mg/kg/d subcutaneously in six divided doses every 2 h, n = 3; for Kidney histopathology, mice with the SQS score: mouse, in vivo
How it was run: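 Female Swiss mice (7-week-old, 22–28 g) received lipopeptides in saline either s.c. at 12 mg/kg ×6 every 2 h (total 72 mg/kg, n = 3) or i.p. at 20 or 25 mg/kg ×6 every 2 h (total 120 mg/kg, n = 6; 150 mg/kg, n = 3). Right kidney collected 20 h after last dose, fixed in 10% buffered formalin (pH 7.4), histology scored blinded.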

| Compound | kidney histology, SQS scores [1] | level at time molar [1] | Log10 CFU/mL blood at 4 h, Mean (P. aeruginosa ATCC 27853 [2]) | Δlog10 CFU/mL blood (mean) (P. aeruginosa ATCC 27853 [2]) | Log10 CFU/mL blood at 4 h, single mouse (P. aeruginosa ATCC 27853 [2]) | Delta Log10 CFU/mL blood at 4 h, single mouse (P. aeruginosa ATCC 27853 [2]) | Kidney histopathology (SQS Score) (Swiss mice, kidney) | Kidney histopathology, mice with the SQS score (Swiss mice, kidney) | MIC A. baumannii ATCC 19606 (A. baumannii ATCC 19606; ATCC 19606) | MIC A. baumannii FADDI-AB030 (A. baumannii FADDI-AB030; FADDI-AB030) | MIC A. baumannii FADDI-AB034 (A. baumannii FADDI-AB034; FADDI-AB034) | MIC P. aeruginosa ATCC 27853 (P. aeruginosa ATCC 27853 [4]; ATCC 27853) | MIC P. aeruginosa FADDI-PA025 ([5]; FADDI-PA025) | MIC P. aeruginosa FADDI-PA038 ([6]; FADDI-PA038) | MIC K. pneumoniae FADDI-KP032 ([7]; FADDI-KP032) | MIC K. pneumoniae FADDI-KP065 ([8]; FADDI-KP065) | other results |
| --- | --- | --- | --- | --- | --- | --- | --- | --- | --- | --- | --- | --- | --- | --- | --- | --- | --- |
| CC[C@H](C)CCCCC(=O)N[C@@H](CCN)C(=O)N[C@H](C(=O)N[C@@H](CCN)C(=O)N[C@H]1CCNC(=O)[C@H]([C@@H](C)O)NC(=O)[C@H](CCN)NC(=O)[C@H](CCN)NC(=O)[C@H](CC(C)C)NC(=O)[C@@H](Cc2ccccc2)NC(=O)[C@H](CCN)NC1=O)[C@@H](C)O [polymyxin B1] (HELM PEPTIDE1{[CC[C@H](C)CCCCC(=O)[*:2]].[Dab].T.[Dab].[Dab].[Dab].[dF].L.[Dab].[Dab].T}$PEPTIDE1,PEPTIDE1,5:R3-11:R2$$$V2.0) | +5 (SQS + 5 = severe damage (overall score, >60)) | 38.2 µM |  |  |  |  |  |  |  |  |  |  |  |  |  |  |  |
| CC[C@@H]1NC(=O)[C@@H](CC(C)C)NC(=O)[C@H](CCN)NC(=O)[C@@H](NC(=O)[C@H](CN)NC(=O)[C@@H](NC(=O)[C@H](CCN)NC(=O)c2ccccc2)[C@@H](C)O)CCNC(=O)[C@H]([C@@H](C)O)NC(=O)[C@H](CCN)NC(=O)[C@H](CCN)NC1=O [Lipopeptide F379] (HELM PEPTIDE1{[O=C(c1ccccc1)[*:2]].[Dab].T.[NC[C@H](N[*:1])C(=O)[*:2]].[Dab].[Dab].[dL].[Abu].[Dab].[Dab].T}$PEPTIDE1,PEPTIDE1,5:R3-11:R2$$$V2.0) |  |  | 5.27 Log10 CFU/mL blood | −2.67 log10 CFU/mL blood | 5.36 Log10 CFU/mL blood and 5.17 Log10 CFU/mL blood | -2.58 Log10 CFU/mL blood and -2.77 Log10 CFU/mL blood |  |  |  |  |  |  |  |  |  |  | MTD [3]: 26 mg/kg; MTD, single replicate (Swiss mice): 23 mg/kg and 21.3 mg/kg and 16 mg/kg; MIC A. baumannii ATCC 19606 (A. baumannii ATCC 19606): 8 µg/mL (≈ 7.33 µM); MIC A. baumannii FADDI-AB030 (A. baumannii FADDI-AB030; carbapenem-resistant isolate): 2 µg/mL (≈ 1.83 µM); MIC A. baumannii FADDI-AB034 (A. baumannii FADDI-AB034; carbapenem-resistant isolate): 8 µg/mL (≈ 7.33 µM); MIC P. aeruginosa ATCC 27853 (P. aeruginosa ATCC 27853 [4]): 1 µg/mL (≈ 0.916 µM); MIC P. aeruginosa FADDI-PA025 ([5]; MDR clinical isolate): >32 µg/mL; MIC P. aeruginosa FADDI-PA038 ([6]; carbapenem-resistant isolate): 4 µg/mL (≈ 3.67 µM); MIC K. pneumoniae FADDI-KP032 ([7]; carbapenem-resistant isolate): 2 µg/mL (≈ 1.83 µM); MIC K. pneumoniae FADDI-KP065 ([8]; carbapenem-resistant isolate): 2 µg/mL (≈ 1.83 µM) |
| CC[C@H](C)CCCCC(=O)N[C@@H](CCN)C(=O)N[C@H](C(=O)N[C@@H](CCN)C(=O)N[C@H]1CCNC(=O)[C@H]([C@@H](C)O)NC(=O)[C@H](CCN)NC(=O)[C@H](CCN)NC(=O)[C@H](CC(C)C)NC(=O)[C@@H](CC(C)C)NC(=O)[C@H](CCN)NC1=O)[C@@H](C)O [colistin A] (HELM PEPTIDE1{[CC[C@H](C)CCCCC(=O)[*:2]].[Dab].T.[Dab].[Dab].[Dab].[dL].L.[Dab].[Dab].T}$PEPTIDE1,PEPTIDE1,5:R3-11:R2$$$V2.0) | +5 (SQS + 5 = severe damage (overall score, >60)) | 86.7 µM |  |  |  |  |  |  |  |  |  |  |  |  |  |  |  |
| CCCCCCCC(=O)N[C@@H](CCN)C(=O)N[C@H](C(=O)N[C@@H](CCCN)C(=O)N[C@H]1CCNC(=O)[C@H]([C@@H](C)O)NC(=O)[C@H](CCN)NC(=O)[C@H](CCN)NC(=O)[C@H]([C@@H](C)O)NC(=O)[C@@H](CC(C)C)NC(=O)[C@H](CCN)NC1=O)[C@@H](C)O [Lipopeptide F252] (HELM PEPTIDE1{[CCCCCCCC(=O)[*:2]].[Dab].T.[Orn].[Dab].[Dab].[dL].T.[Dab].[Dab].T}$PEPTIDE1,PEPTIDE1,5:R3-11:R2$$$V2.0) |  |  | 5.46 Log10 CFU/mL blood | −1.98 log10 CFU/mL blood | 5.30 Log10 CFU/mL blood and 5.91 Log10 CFU/mL blood and 5.19 Log10 CFU/mL blood | -2.15 Log10 CFU/mL blood and -1.54 Log10 CFU/mL blood and -2.26 Log10 CFU/mL blood | +1 (SQS + 1 = mild damage (overall score, 1 to <15)) | 2/3 | 1 µg/mL (≈ 0.864 µM) | 0.5 µg/mL (≈ 0.432 µM) | 1 µg/mL (≈ 0.864 µM) | 0.5 µg/mL (≈ 0.432 µM) | >32 µg/mL | 2 µg/mL (≈ 1.73 µM) | <0.125 µg/mL | 0.5 µg/mL (≈ 0.432 µM) |  |
| CCCCCCCC(=O)N[C@@H](CCN)C(=O)N[C@H](C(=O)N[C@H](CN)C(=O)N[C@H]1CCNC(=O)[C@H]([C@@H](C)O)NC(=O)[C@H](CCN)NC(=O)[C@H](CCN)NC(=O)[C@H]([C@@H](C)O)NC(=O)[C@@H](CC(C)C)NC(=O)[C@H](CCN)NC1=O)[C@@H](C)O [Lipopeptide F300] (HELM PEPTIDE1{[CCCCCCCC(=O)[*:2]].[Dab].T.[NC[C@@H](N[*:1])C(=O)[*:2]].[Dab].[Dab].[dL].T.[Dab].[Dab].T}$PEPTIDE1,PEPTIDE1,5:R3-11:R2$$$V2.0) |  |  | 5.31 Log10 CFU/mL blood | −1.53 log10 CFU/mL blood | 5.76 Log10 CFU/mL blood and 5.85 Log10 CFU/mL blood and 4.64 Log10 CFU/mL blood and 4.99 Log10 CFU/mL blood | -1.08 Log10 CFU/mL blood and -1.00 Log10 CFU/mL blood and -2.20 Log10 CFU/mL blood and -1.85 Log10 CFU/mL blood | +2 (SQS + 2 = mild to moderate damage (overall score, 15 to <30)) | 3/3 | 0.25 µg/mL (≈ 0.221 µM) | <0.125 µg/mL | <0.125 µg/mL | 0.25 µg/mL (≈ 0.221 µM) | 4 µg/mL (≈ 3.54 µM) | 1 µg/mL (≈ 0.885 µM) | <0.125 µg/mL | <0.125 µg/mL | MIC, No Survanta (P. aeruginosa ATCC 27853 [4]; ATCC 27853): 1 µg/mL (≈ 0.885 µM) |
